Test results as given in ChEMBL document CHEMBL4715697, “Synthesis and biological activity of benzamide DNA minor groove binders” (2016).

Legend:
Type in all cases: functional
NCI-H226 = test: Growth inhibition of human NCI-H226 cells assessed as cell growth at 0.1 uM incubated for 48 hrs by sulforhodamine B assay relative to control; conditions: read-out: Activity
HOP-62 = test: Growth inhibition of human HOP-62 cells assessed as cell growth at 1 uM incubated for 48 hrs by sulforhodamine B assay relative to control; conditions: read-out: Activity
MDA-MB-468 = test: Growth inhibition of human MDA-MB-468 cells assessed as cell growth at 0.1 uM incubated for 48 hrs by sulforhodamine B assay relative to control; conditions: read-out: Activity
A549 = test: Growth inhibition of human A549/ATCC cells assessed as cell growth at 0.1 uM incubated for 48 hrs by sulforhodamine B assay relative to control; conditions: read-out: Activity
BT-549 [1] = test: Growth inhibition of human BT-549 cells incubated for 48 hrs by sulforhodamine B assay
KM12 [2] = test: Growth inhibition of human KM12 cells assessed as cell growth at 0.01 uM incubated for 48 hrs by sulforhodamine B assay relative to control; conditions: read-out: Activity
DU-145 = test: Growth inhibition of human DU-145 cells assessed as cell growth at 0.01 uM incubated for 48 hrs by sulforhodamine B assay relative to control; conditions: read-out: Activity
ACHN = test: Growth inhibition of human ACHN cells assessed as cell growth at 1 uM incubated for 48 hrs by sulforhodamine B assay relative to control; conditions: read-out: Activity
SN12C [3] = test: Growth inhibition of human SN12C cells incubated for 48 hrs by sulforhodamine B assay
SK-MEL-28 = test: Growth inhibition of human SK-MEL-28 cells incubated for 48 hrs by sulforhodamine B assay
SK-MEL-5 = test: Growth inhibition of human SK-MEL-5 cells assessed as cell growth at 0.01 uM incubated for 48 hrs by sulforhodamine B assay relative to control; conditions: read-out: Activity
MOLT-4 = test: Growth inhibition of human MOLT-4 cells incubated for 48 hrs by sulforhodamine B assay
CAKI-1 = test: Growth inhibition of human CAKI-1 cells assessed as cell growth at 1 uM incubated for 48 hrs by sulforhodamine B assay relative to control; conditions: read-out: Activity
SNB-19 = test: Growth inhibition of human SNB-19 cells incubated for 48 hrs by sulforhodamine B assay
T47D [4] = test: Growth inhibition of human T47D cells assessed as cell growth at 0.1 uM incubated for 48 hrs by sulforhodamine B assay relative to control; conditions: read-out: Activity
HCC 2998 = test: Growth inhibition of human HCC 2998 cells assessed as cell growth at 1 uM incubated for 48 hrs by sulforhodamine B assay relative to control; conditions: read-out: Activity
UACC-62 = test: Growth inhibition of human UACC-62 cells assessed as cell growth at 0.01 uM incubated for 48 hrs by sulforhodamine B assay relative to control; conditions: read-out: Activity
HL-60(TB) = test: Growth inhibition of human HL-60(TB) cells assessed as cell growth at 1 uM incubated for 48 hrs by sulforhodamine B assay relative to control; conditions: read-out: Activity
SF-295 = test: Growth inhibition of human SF-295 cells assessed as cell growth at 100 uM incubated for 48 hrs by sulforhodamine B assay relative to control; conditions: read-out: Activity
BT-549 [5] = test: Growth inhibition of human BT-549 cells assessed as cell growth at 1 uM incubated for 48 hrs by sulforhodamine B assay relative to control; conditions: read-out: Activity
T47D [6] = test: Growth inhibition of human T47D cells assessed as cell growth at 100 uM incubated for 48 hrs by sulforhodamine B assay relative to control; conditions: read-out: Activity
SN12C [7] = test: Growth inhibition of human SN12C cells assessed as cell growth at 0.1 uM incubated for 48 hrs by sulforhodamine B assay relative to control; conditions: read-out: Activity
KM12 [8] = test: Growth inhibition of human KM12 cells incubated for 48 hrs by sulforhodamine B assay
SF-539 = test: Growth inhibition of human SF-539 cells incubated for 48 hrs by sulforhodamine B assay
NCI-H23 = test: Growth inhibition of human NCI-H23 cells assessed as cell growth at 100 uM incubated for 48 hrs by sulforhodamine B assay relative to control; conditions: read-out: Activity
SR [9] = test: Growth inhibition of human SR cells assessed as cell growth at 1 uM incubated for 48 hrs by sulforhodamine B assay relative to control; conditions: read-out: Activity
RXF 393 = test: Growth inhibition of human RXF 393 cells assessed as cell growth at 0.01 uM incubated for 48 hrs by sulforhodamine B assay relative to control; conditions: read-out: Activity
SNB-75 = test: Growth inhibition of human SNB-75 cells incubated for 48 hrs by sulforhodamine B assay
SR [10] = test: Growth inhibition of human SR cells assessed as cell growth at 0.01 uM incubated for 48 hrs by sulforhodamine B assay relative to control; conditions: read-out: Activity
MDA-MB-435 [11] = test: Growth inhibition of human MDA-MB-435 cells assessed as cell growth at 100 uM incubated for 48 hrs by sulforhodamine B assay relative to control; conditions: read-out: Activity
UO-31 = test: Growth inhibition of human UO-31 cells assessed as cell growth at 0.1 uM incubated for 48 hrs by sulforhodamine B assay relative to control; conditions: read-out: Activity
MDA-MB-435 [12] = test: Growth inhibition of human MDA-MB-435 cells incubated for 48 hrs by sulforhodamine B assay
A498 = test: Growth inhibition of human A498 cells assessed as cell growth at 0.01 uM incubated for 48 hrs by sulforhodamine B assay relative to control; conditions: read-out: Activity
[13] = read-out: LC50 (the source's name)
[14] = read-out: pLC50 (the source's name) (converted)

CC(=O)Nc1cc(CCl)cc(NC(=O)c2ccc(C(=O)Nc3cccc(NC(=O)CCCN(C)C)c3)cc2)c1
growth at 0.1 µM (NCI-H226): 92%
growth at 1 µM (HOP-62): 102%
growth at 0.1 µM (MDA-MB-468): 84%
growth at 0.1 µM (A549): 99%
GI50 (BT-549 [1]; read-out: GI50): > 100 µM
CC50 (BT-549 [1]; [13]): > 100 µM
TGI (BT-549 [1]; read-out: TGI): > 100 µM
GI50 (BT-549 [1]; read-out: pGI50 (converted)): > 100 µM
CC50 (BT-549 [1]; [14]): > 100 µM
TGI (BT-549 [1]; read-out: pTGI): > 100 µM
growth at 0.01 µM (KM12 [2]): 105%
growth at 0.01 µM (DU-145): 106%
growth at 1 µM (ACHN): 96%
GI50 (SN12C [3]; read-out: GI50): > 100 µM
CC50 (SN12C [3]; [13]): > 100 µM
TGI (SN12C [3]; read-out: TGI): > 100 µM
GI50 (SN12C [3]; read-out: pGI50 (converted)): > 100 µM
CC50 (SN12C [3]; [14]): > 100 µM
TGI (SN12C [3]; read-out: pTGI): > 100 µM
GI50 (SK-MEL-28; read-out: GI50): > 100 µM
LC50 (50% lethal concentration) (SK-MEL-28; read-out: LC50): > 100 µM
TGI (SK-MEL-28; read-out: TGI): > 100 µM
GI50 (SK-MEL-28; read-out: pGI50 (converted)): > 100 µM
LC50 (50% lethal concentration) (SK-MEL-28; read-out: pLC50 (converted)): > 100 µM
TGI (SK-MEL-28; read-out: pTGI): > 100 µM
growth at 0.01 µM (SK-MEL-5): 96%
GI50 (MOLT-4; read-out: GI50): > 100 µM
CC50 (MOLT-4; [13]): > 100 µM
TGI (MOLT-4; read-out: TGI): > 100 µM
GI50 (MOLT-4; read-out: pGI50 (converted)): > 100 µM
CC50 (MOLT-4; [14]): > 100 µM
TGI (MOLT-4; read-out: pTGI): > 100 µM
growth at 1 µM (CAKI-1): 95%
GI50 (SNB-19; read-out: GI50): > 100 µM
CC50 (SNB-19; [13]): > 100 µM
TGI (SNB-19; read-out: TGI): > 100 µM
GI50 (SNB-19; read-out: pGI50 (converted)): > 100 µM
CC50 (SNB-19; [14]): > 100 µM
TGI (SNB-19; read-out: pTGI): > 100 µM
growth at 0.1 µM (T47D [4]): 103%
growth at 1 µM (HCC 2998): 96%
growth at 0.01 µM (UACC-62): 100%
growth at 1 µM (HL-60(TB)): 99%
growth at 100 µM (SF-295): 38%
growth at 1 µM (BT-549 [5]): 108%
growth at 100 µM (T47D [6]): 71%
growth at 0.1 µM (SN12C [7]): 104%
GI50 (KM12 [8]; read-out: GI50): > 100 µM
CC50 (KM12 [8]; [13]): > 100 µM
TGI (KM12 [8]; read-out: TGI): > 100 µM
GI50 (KM12 [8]; read-out: pGI50 (converted)): > 100 µM
CC50 (KM12 [8]; [14]): > 100 µM
TGI (KM12 [8]; read-out: pTGI): > 100 µM
GI50 (SF-539; read-out: GI50): > 100 µM
CC50 (SF-539; [13]): > 100 µM
TGI (SF-539; read-out: TGI): > 100 µM
GI50 (SF-539; read-out: pGI50 (converted)): > 100 µM
CC50 (SF-539; [14]): > 100 µM
TGI (SF-539; read-out: pTGI): > 100 µM
growth at 100 µM (NCI-H23): 79%
growth at 1 µM (SR [9]): 118%
growth at 0.01 µM (RXF 393): 96%
GI50 (SNB-75; read-out: GI50): > 100 µM
LC50 (SNB-75; read-out: LC50): > 100 µM
TGI (SNB-75; read-out: TGI): > 100 µM
GI50 (SNB-75; read-out: pGI50 (converted)): > 100 µM
LC50 (SNB-75; read-out: pLC50 (converted)): > 100 µM
TGI (SNB-75; read-out: pTGI): > 100 µM
growth at 0.01 µM (SR [10]): 96%
growth at 100 µM (MDA-MB-435 [11]): 94%
growth at 0.1 µM (UO-31): 97%
GI50 (MDA-MB-435 [12]; read-out: GI50): > 100 µM
LC50 (50% lethal concentration) (MDA-MB-435 [12]; read-out: LC50): > 100 µM
TGI (MDA-MB-435 [12]; read-out: TGI): > 100 µM
GI50 (MDA-MB-435 [12]; read-out: pGI50 (converted)): > 100 µM
LC50 (50% lethal concentration) (MDA-MB-435 [12]; read-out: pLC50 (converted)): > 100 µM
TGI (MDA-MB-435 [12]; read-out: pTGI): > 100 µM
growth at 0.01 µM (A498): 67%
